Data on 1 compound can be found in patent US5262411A, “Isocephem derivatives, and antimicrobial composition containing the derivatives” (Otsuka Pharmaceutical Co., Ltd., priority 1989, dated 1993).

In brackets after ≈: the same amount, converted by molar mass.

By MIC is commonly meant the lowest concentration found to suppress growth.

Holding throughout (assay type): cell-based
For assay [1], the system named is S. aureaus FDA-209P. Kind of assay: MIC against S. aureaus FDA-209P by the plate diluted method. The settings on record: Staphylococcus aureus, FDA209P; S. aureaus FDA-209P; 1×10^6 cells/ml; read-out: MIC. As to the method:
(§1) In order to investigate the in vitro activity of the test compounds against various bacteria, the minimal inhibitory concentration (MIC) values were determined by the plate diluted method (See CHEMOTHERAPY, 22, 1126-1128, 1974.)
(§2) Each strain was adjusted to 1×10^6 cells/ml (O.D. 600 mμ, 0.07 to 0.16).

For assay [2], the system named is E. coli NIHJ JC-2. Description: MIC against E. coli NIHJ JC-2 by the plate diluted method. The note with it: Escherichia coli, NIHJJC2; E. coli NIHJ JC-2; 1×10^6 cells/ml; read-out: MIC. The method, then: as §1, §2
For assay [3], the system named is K. pneumoniae NCTC-9632. Description: MIC against K. pneumoniae NCTC-9632 by the plate diluted method. The settings on record: Klebsiella pneumoniae, NCTC9632; K. pneumoniae NCTC-9632; 1×10^6 cells/ml; read-out: MIC. As to the method: as §1, §2
In assay [4] the test system is M. moganii IIDkono. Kind of assay: MIC against M. moganii IIDkono by the plate diluted method. The note with it: M. moganii IIDkono; 1×10^6 cells/ml; read-out: MIC. The method, then: as §1, §2
Assay [5] deals with S. marcescens IFO 12648. Description: MIC against S. marcescens IFO 12648 by the plate diluted method. The settings on record: Serratia marcescens, IFO12648; S. marcescens IFO 12648; 1×10^6 cells/ml; read-out: MIC. The method, then:
as §1, §2

Assay [6] deals with A. calcoaceticus Ac-54. Kind of assay: MIC against A. calcoaceticus Ac-54 by the plate diluted method. The settings on record: Acinetobacter calcoaceticus, AC54; A. calcoaceticus Ac-54; 1×10^6 cells/ml; read-out: MIC. As to the method: as §1, §2
The subject of assay [7] is P. aeruginosa ATCC-10145. Description: MIC against P. aeruginosa ATCC-10145 by the plate diluted method. The settings on record: Pseudomonas aeruginosa, ATCC10145; P. aeruginosa ATCC-10145; 1×10^6 cells/ml; read-out: MIC. As to the method:
as §1, §2

Assay [8] has as its system P. aeruginosa E-2. Kind of assay: MIC against P. aeruginosa E-2 by the plate diluted method. The note with it: Pseudomonas aeruginosa, E2; P. aeruginosa E-2; 1×10^6 cells/ml; read-out: MIC. The method, then: as §1, §2

For the compound `Nc1nc(/C(=N/OCc2cc(=O)c(O)cn2O)C(=O)N[C@@H]2C(=O)N3C(C(=O)[O-])=C(CSc4cc[n+](CC(=O)O)cc4)SC[C@H]23)ns1` [No. 24, (6S,7S)-7-[(Z)-2-(5-amino-1,2,4-thiadiazol-3-yl)-2-(1,5-dihydroxy-4-pyridone-2-ylmethoxyimino)acetamide]-3-(1-carboxymethylpyridinium-4-ylthiomethyl)isocephem-4-carboxylate], the MIC in assay [1] is 12.5 µg/mL (≈ 18.1 µM); in assay [2], 0.1 µg/mL (≈ 0.145 µM); in assay [3], 0.024 µg/mL (≈ 0.0347 µM); in assay [4], 0.024 µg/mL (≈ 0.0347 µM); in assay [5], 0.024 µg/mL (≈ 0.0347 µM); in assay [6] it was 0.39 µg/mL (≈ 0.565 µM). Besides, the minimal inhibitory concentration (MIC) in assay [7] amounted to 0.1 µg/mL (≈ 0.145 µM); in assay [8], 0.2 µg/mL (≈ 0.29 µM).
